{"source": "patent US9833497B2", "about": "“Human originated EGF domain proteins and use of the same” (CHENGDU SOURCEBIO LIMITED-LIABILITY COMPANY, priority 2013, dated 2017)", "assay_type_in_all_cases": "cell-based", "key": {"E. coli DH5α": {"system": "E. coli DH5α", "assay": "Antibacterial activity: MIC and growth curve against E. coli DH5α in 96-well plate", "details": "minimal inhibitory concentration against E. coli DH5α; 96-well plate, 5×10^5 CFU/mL, 37° C., judged after 8 h", "outline": "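Log-phase bacteria (OD600 ~0.5) resuspended in LB at 5×10^5 CFU/mL, exposed to recombinant protein at 50, 25, 12.5 μg/mL final in triplicate, 37 °C shaking at 175 rpm. OD600 read every 30 min; MIC is lowest concentration showing no growth.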"}, "Serratia marcescens": {"system": "Serratia marcescens", "assay": "MIC against Gram-negative bacteria: Serratia marcescens", "details": "5×10^5 CFU/mL", "outline": "(§1)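 Two-fold serial dilutions of each purified human EGF domain protein, three replicate wells per level, were combined with bacteria at a final 5×10^5 CFU/mL in LB. Cultures were shaken at 175 rpm, 37° C. The MIC was taken as the minimum concentration preventing growth.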"}, "Aeromonas hydrophila": {"system": "Aeromonas hydrophila", "assay": "MIC against Gram-negative bacteria: Aeromonas hydrophila", "details": "5×10^5 CFU/mL", "outline": "as §1"}, "Pseudomonas aeruginosa": {"system": "Pseudomonas aeruginosa", "assay": "MIC against Gram-negative bacteria: Pseudomonas aeruginosa", "details": "5×10^5 CFU/mL", "outline": "as §1"}, "Proteus mirabilis": {"system": "Proteus mirabilis", "assay": "MIC against Gram-negative bacteria: Proteus mirabilis", "details": "5×10^5 CFU/mL", "outline": "as §1"}, "Enterobacter cloacae": {"system": "Enterobacter cloacae", "assay": "MIC against Gram-negative bacteria: Enterobacter cloacae", "details": "5×10^5 CFU/mL", "outline": "as §1"}, "Citrobacter diversus": {"system": "Citrobacter diversus", "assay": "MIC against Gram-negative bacteria: Citrobacter diversus", "details": "5×10^5 CFU/mL", "outline": "as §1"}, "Moraxella catarrhalis": {"system": "Moraxella catarrhalis", "assay": "MIC against Gram-negative bacteria: Moraxella catarrhalis", "details": "5×10^5 CFU/mL", "outline": "as §1"}, "Proteus vulgaris": {"system": "Proteus vulgaris", "assay": "MIC against Gram-negative bacteria: Proteus vulgaris", "details": "5×10^5 CFU/mL", "outline": "as §1"}, "E. coli BL21": {"system": "E. coli BL21", "assay": "MIC against Gram-negative bacteria: E. coli BL21", "details": "5×10^5 CFU/mL", "outline": "as §1"}, "Klebsiella pneumonia": {"system": "Klebsiella pneumonia", "assay": "MIC against Gram-negative bacteria: Klebsiella pneumonia", "details": "5×10^5 CFU/mL", "outline": "as §1"}, "[1]": {"details": "Serratia marcescens, 96-well plate, 37° C., 10 h"}, "[2]": {"details": "Aeromonas hydrophila, 96-well plate, 37° C., 10 h"}, "[3]": {"details": "Pseudomonas aeruginosa, 96-well plate, 37° C., 10 h"}, "[4]": {"details": "Proteus mirabilis, 96-well plate, 37° C., 10 h"}, "[5]": {"details": "Enterobacter cloacae, 96-well plate, 37° C., 10 h"}, "[6]": {"details": "Citrobacter diversus, 96-well plate, 37° C., 10 h"}, "[7]": {"details": "Moraxella catarrhalis, 96-well plate, 37° C., 10 h"}, "[8]": {"details": "Proteus vulgaris, 96-well plate, 37° C., 10 h"}, "[9]": {"details": "Klebsiella pneumonia, 96-well plate, 37° C., 10 h"}}}
{"substance": "PRT90 (CDCYPVGSTSRSCAPHSGQCPCRPGALGRQCNSCDSPFAEVTASGCRV; listed as Homo sapiens)", "values": [{"measurement": "MIC", "setting": "E. coli DH5α", "result": 50, "unit": "µg/mL"}, {"measurement": "MIC (μg/mL) S. marcescens", "setting": "Serratia marcescens; [1]", "result": 12.5, "unit": "µg/mL"}, {"measurement": "MIC (μg/mL) A. hydrophila", "setting": "Aeromonas hydrophila; [2]", "result": 12.5, "unit": "µg/mL"}, {"measurement": "MIC (μg/mL) P. aeruginosa", "setting": "Pseudomonas aeruginosa; [3]", "result": 12.5, "unit": "µg/mL"}, {"measurement": "MIC (μg/mL) P. mirabilis", "setting": "Proteus mirabilis; [4]", "result": 25, "unit": "µg/mL"}, {"measurement": "MIC (μg/mL) E. cloacae", "setting": "Enterobacter cloacae; [5]", "result": 12.5, "unit": "µg/mL"}, {"measurement": "MIC (μg/mL) C. diversus", "setting": "Citrobacter diversus; [6]", "result": 25, "unit": "µg/mL"}, {"measurement": "MIC (μg/mL) M. catarrhalis", "setting": "Moraxella catarrhalis; [7]", "result": 12.5, "unit": "µg/mL"}, {"measurement": "MIC (μg/mL) P. vulgaris", "setting": "Proteus vulgaris; [8]", "result": 12.5, "unit": "µg/mL"}, {"measurement": "MIC (μg/mL) E. coli BL21", "setting": "E. coli BL21; 96-well plate, 37° C., 10 h", "result": 12.5, "unit": "µg/mL"}, {"measurement": "MIC (μg/mL) K. pneumonia", "setting": "Klebsiella pneumonia; [9]", "result": 12.5, "unit": "µg/mL"}]}
{"substance": "PRT741 (SAHPCARDNGGCSHICIAKGDGTPRCSCPVHLVLLQNLLTCG; listed as Homo sapiens)", "values": [{"measurement": "MIC", "setting": "E. coli DH5α", "result": 12.5, "unit": "µg/mL"}, {"measurement": "MIC S. marcescens", "setting": "Serratia marcescens; 96-well plate, 37° C., 10 h", "result": 12.5, "unit": "µg/mL"}, {"measurement": "MIC A. hydrophila", "setting": "Aeromonas hydrophila; 96-well plate, 37° C., 10 h", "result": 12.5, "unit": "µg/mL"}, {"measurement": "MIC P. aeruginosa", "setting": "Pseudomonas aeruginosa; 96-well plate, 37° C., 10 h", "result": 12.5, "unit": "µg/mL"}, {"measurement": "MIC P. mirabilis", "setting": "Proteus mirabilis; 96-well plate, 37° C., 10 h", "result": 50, "unit": "µg/mL"}, {"measurement": "MIC E. cloacae", "setting": "Enterobacter cloacae; 96-well plate, 37° C., 10 h", "result": 50, "unit": "µg/mL"}, {"measurement": "MIC C. diversus", "setting": "Citrobacter diversus; 96-well plate, 37° C., 10 h", "result": 50, "unit": "µg/mL"}, {"measurement": "MIC M. catarrhalis", "setting": "Moraxella catarrhalis; 96-well plate, 37° C., 10 h", "result": 12.5, "unit": "µg/mL"}, {"measurement": "MIC P. vulgaris", "setting": "Proteus vulgaris; 96-well plate, 37° C., 10 h", "result": 25, "unit": "µg/mL"}, {"measurement": "MIC E. coli BL21", "setting": "E. coli BL21; 96-well plate, 37° C., 10 h", "result": 50, "unit": "µg/mL"}, {"measurement": "MIC K. pneumonia", "setting": "Klebsiella pneumonia; 96-well plate, 37° C., 10 h", "result": 25, "unit": "µg/mL"}]}
{"substance": "PRT61 (KDECSKDNGGCQQDCVNTFGSYECQCRSGFVLHDNKHDCK; listed as Homo sapiens)", "values": [{"measurement": "MIC", "setting": "E. coli DH5α", "result": 12.5, "unit": "µg/mL"}, {"measurement": "MIC (μg/mL) S. marcescens", "setting": "Serratia marcescens; [1]", "result": 25, "unit": "µg/mL"}, {"measurement": "MIC (μg/mL) A. hydrophila", "setting": "Aeromonas hydrophila; [2]", "result": 12.5, "unit": "µg/mL"}, {"measurement": "MIC (μg/mL) P. aeruginosa", "setting": "Pseudomonas aeruginosa; [3]", "result": 12.5, "unit": "µg/mL"}, {"measurement": "MIC (μg/mL) P. mirabilis", "setting": "Proteus mirabilis; [4]", "result": 25, "unit": "µg/mL"}, {"measurement": "MIC (μg/mL) E. cloacae", "setting": "Enterobacter cloacae; [5]", "result": 12.5, "unit": "µg/mL"}, {"measurement": "MIC (μg/mL) C. diversus", "setting": "Citrobacter diversus; [6]", "result": 25, "unit": "µg/mL"}, {"measurement": "MIC (μg/mL) M. catarrhalis", "setting": "Moraxella catarrhalis; [7]", "result": 25, "unit": "µg/mL"}, {"measurement": "MIC (μg/mL) P. vulgaris", "setting": "Proteus vulgaris; [8]", "result": 12.5, "unit": "µg/mL"}, {"measurement": "MIC (μg/mL) E. coli BL21", "setting": "E. coli BL21; 96-well plate, 37° C., 10 h", "result": 50, "unit": "µg/mL"}, {"measurement": "MIC (μg/mL) K. pneumonia", "setting": "Klebsiella pneumonia; [9]", "result": 12.5, "unit": "µg/mL"}]}
{"substance": "PRT46 (CQCNGHSTCINNNVCEQCKNLTTGKQCQDCMPGYYGDPTNGGQCTA; listed as Homo sapiens)", "values": [{"measurement": "MIC", "setting": "E. coli DH5α", "result": 25, "unit": "µg/mL"}, {"measurement": "MIC (μg/mL) S. marcescens", "setting": "Serratia marcescens; [1]", "result": 100, "unit": "µg/mL"}, {"measurement": "MIC (μg/mL) A. hydrophila", "setting": "Aeromonas hydrophila; [2]", "result": 12.5, "unit": "µg/mL"}, {"measurement": "MIC (μg/mL) P. aeruginosa", "setting": "Pseudomonas aeruginosa; [3]", "result": 50, "unit": "µg/mL"}, {"measurement": "MIC (μg/mL) P. mirabilis", "setting": "Proteus mirabilis; [4]", "result": 25, "unit": "µg/mL"}, {"measurement": "MIC (μg/mL) E. cloacae", "setting": "Enterobacter cloacae; [5]", "result": 25, "unit": "µg/mL"}, {"measurement": "MIC (μg/mL) C. diversus", "setting": "Citrobacter diversus; [6]", "result": 12.5, "unit": "µg/mL"}, {"measurement": "MIC (μg/mL) M. catarrhalis", "setting": "Moraxella catarrhalis; [7]", "result": 12.5, "unit": "µg/mL"}, {"measurement": "MIC (μg/mL) P. vulgaris", "setting": "Proteus vulgaris; [8]", "result": 12.5, "unit": "µg/mL"}, {"measurement": "MIC (μg/mL) E. coli BL21", "setting": "E. coli BL21; 96-well plate, 37° C., 10 h", "result": 12.5, "unit": "µg/mL"}, {"measurement": "MIC (μg/mL) K. pneumonia", "setting": "Klebsiella pneumonia; [9]", "result": 12.5, "unit": "µg/mL"}]}
{"substance": "PRT174 (CASSPCANGGTCRDGVNDFSCTCPPGYTGRNC; listed as Homo sapiens)", "values": [{"measurement": "MIC", "setting": "E. coli DH5α", "result": 50, "unit": "µg/mL"}, {"measurement": "MIC (μg/mL) S. marcescens", "setting": "Serratia marcescens; S. marcescens, 10 h cultivation at 37° C.", "result": 12.5, "unit": "µg/mL"}, {"measurement": "MIC (μg/mL) A. hydrophila", "setting": "Aeromonas hydrophila; A. hydrophila, 10 h cultivation at 37° C.", "result": 12.5, "unit": "µg/mL"}, {"measurement": "MIC (μg/mL) P. aeruginosa", "setting": "Pseudomonas aeruginosa; P. aeruginosa, 10 h cultivation at 37° C.", "result": 25, "unit": "µg/mL"}, {"measurement": "MIC (μg/mL) P. mirabilis", "setting": "Proteus mirabilis; P. mirabilis, 10 h cultivation at 37° C.", "result": 12.5, "unit": "µg/mL"}, {"measurement": "MIC (μg/mL) E. cloacae", "setting": "Enterobacter cloacae; E. cloacae, 10 h cultivation at 37° C.", "result": 25, "unit": "µg/mL"}, {"measurement": "MIC (μg/mL) C. diversus", "setting": "Citrobacter diversus; C. diversus, 10 h cultivation at 37° C.", "result": 25, "unit": "µg/mL"}, {"measurement": "MIC (μg/mL) M. catarrhalis", "setting": "Moraxella catarrhalis; M. catarrhalis, 10 h cultivation at 37° C.", "result": 50, "unit": "µg/mL"}, {"measurement": "MIC (μg/mL) P. vulgaris", "setting": "Proteus vulgaris; P. vulgaris, 10 h cultivation at 37° C.", "result": 50, "unit": "µg/mL"}, {"measurement": "MIC (μg/mL) E. coli BL21", "setting": "E. coli BL21; 10 h cultivation at 37° C.", "result": 12.5, "unit": "µg/mL"}, {"measurement": "MIC (μg/mL) K. pneumonia", "setting": "Klebsiella pneumonia; K. pneumonia, 10 h cultivation at 37° C.", "result": 50, "unit": "µg/mL"}]}
